Legend:
[1] = tested on: HRM (Human Renal Mesangial) cell line; experiment: CCK8 cell viability assay, HRM normal cells (toxicity control); assay type: cell-based; conditions: HRM normal human cells, 48 h, CCK8, mean ± SE
Description: Based on these preliminary results, compounds 9c, 9e, 9f, 9i, 9k, 9 L, 9p, 9q, 9t, 9u, 9v, 9w, 10c, 10e which were effective to most of the cell lines were chosen for the measurement of the half-maximal inhibitory concentration (IC50). […] HRM (Human Renal Mesangial) cell line was used as a control to study the toxicity of these compounds against normal human cells.
(§1) CCK8 assay was used to measure cell viability. Cells with a density of 1 × 10^4 cells/well were seeded on the 96-well plates. After adhesion, cells were treated with different diluted compounds or vehicle control DMSO and continue cultured for 48 h. Then, CCK8 reagent was added for one hour incubation at 37 °C with 5% of CO2. Absorbance was measured using a microplate spectrophotometer (Thermo) at 450 nm. The ratio of cell viability of control was taken as 100%. […] Then IC50 of the compounds were investigated using the prism statistical software.

H460 = experiment: CCK8 cell viability assay, H460; assay type: cell-based, Human; conditions: for IC50: H460, 48 h, CCK8, mean ± SE
Description: as §1, with “At first, CCK8 assay was carried out to evaluate the anti-proliferative activity of dolutegravir-1,2,3-triazole derivatives against different cancer cell lines. The results of cell viability of three lung cancer cell lines A549, PC-9 and H460 in the presence of compounds 9 and 10 are summarized in Table 2. Cells were treated with different compounds at the concentration of 20 µM for 48 h. […] Human lung cancer cell lines A549, PC-9 and H460 were all obtained from ATCC. Cells were cultured in DMEM or RPMI 1640 medium containing 10% FBS and 1% penicillin/streptomycin at 37 °C with a 5% CO2-humidified atmosphere. CCK8 assay” for “CCK8 assay”

A549 = experiment: CCK8 cell viability assay, A549; assay type: cell-based, Human; conditions: for IC50: A549, 48 h, CCK8, mean ± SE
Description: as §1, with “At first, CCK8 assay was carried out to evaluate the anti-proliferative activity of dolutegravir-1,2,3-triazole derivatives against different cancer cell lines. The results of cell viability of three lung cancer cell lines A549, PC-9 and H460 in the presence of compounds 9 and 10 are summarized in Table 2. Cells were treated with different compounds at the concentration of 20 µM for 48 h. […] Human lung cancer cell lines A549, PC-9 and H460 were all obtained from ATCC. Cells were cultured in DMEM or RPMI 1640 medium containing 10% FBS and 1% penicillin/streptomycin at 37 °C with a 5% CO2-humidified atmosphere. CCK8 assay” for “CCK8 assay”

PC-9 = experiment: CCK8 cell viability assay, PC-9; assay type: cell-based, Human; conditions: for IC50: PC9, 48 h, CCK8, mean ± SE
Description: as §1, with “At first, CCK8 assay was carried out to evaluate the anti-proliferative activity of dolutegravir-1,2,3-triazole derivatives against different cancer cell lines. The results of cell viability of three lung cancer cell lines A549, PC-9 and H460 in the presence of compounds 9 and 10 are summarized in Table 2. Cells were treated with different compounds at the concentration of 20 µM for 48 h. […] Human lung cancer cell lines A549, PC-9 and H460 were all obtained from ATCC. Cells were cultured in DMEM or RPMI 1640 medium containing 10% FBS and 1% penicillin/streptomycin at 37 °C with a 5% CO2-humidified atmosphere. CCK8 assay” for “CCK8 assay”

[2] = parameters: method as in PMID 35111871; conditions: preclinical study, dose 27 times greater than the clinical dose; cited from earlier work
[3] = H460, 20 µM, 48 h, CCK8, control = 100%
[4] = A549, 20 µM, 48 h, CCK8, control = 100%
[5] = PC9, 20 µM, 48 h, CCK8, control = 100%

In the case of `COc1c2n(cc(C(=O)Nc3cccc(-c4cn(-c5ccccc5I)nn4)c3)c1=O)C[C@@H]1OCC[C@@H](C)N1C2=O` [Compound 9w], the IC50 [1] is reported as over 50 µM, the “Cell viability (100%)” value (H460; [3]) is reported as 30.63% and the IC50 (H460) is reported as 14.7 ± 2.83 µM. For the same compound, the “Cell viability (100%)” value (A549; [4]) was 57.94%, the IC50 (A549) was 33.7 ± 0.68 µM and the “Cell viability (100%)” value (PC-9; [5]) was 55.21%. For the same compound, the IC50 (PC-9) was 9.94 ± 0.36 µM.
In the case of `COc1c2n(cc(C(=O)Nc3cccc(-c4cn(Cc5ccccc5Br)nn4)c3)c1=O)C[C@@H]1OCC[C@@H](C)N1C2=O` [Compound 10c], the IC50 [1] is reported as over 50 µM, the “Cell viability (100%)” value (H460; [3]) is reported as 41.79% and the IC50 (H460) is reported as 15.4 ± 1.38 µM. For the same compound, the “Cell viability (100%)” value (A549; [4]) was 68.05%, the IC50 (A549) was over 50 µM and the “Cell viability (100%)” value (PC-9; [5]) was 50.54%. For the same compound, the IC50 (PC-9) was 12.1 ± 0.46 µM.
With `COc1c2n(cc(C(=O)Nc3cccc(-c4cn(Cc5cccc(Br)c5)nn4)c3)c1=O)C[C@@H]1OCC[C@@H](C)N1C2=O` [Compound 10e] the IC50 [1] was over 50 µM, the “Cell viability (100%)” value (H460; [3]) was 28.88% and the IC50 (H460) was 9.44 ± 1.53 µM. For the same compound, the “Cell viability (100%)” value (A549; [4]) was 96.13%, the IC50 (A549) was over 50 µM and the “Cell viability (100%)” value (PC-9; [5]) was 49.85%. The IC50 (PC-9) was 10.1 ± 0.71 µM.
In the case of `C[C@@H]1CCO[C@H]2Cn3cc(C(=O)NCc4ccc(F)cc4F)c(=O)c(O)c3C(=O)N12` [DTG, Dolutegravir], the “fertility and teratogenic toxicity” value [2] is given as “no obvious fertility toxicity or teratogenic toxicity”, the viability at 20 µM (H460; Homo sapiens, NCI-H460, H460, 20 µM, 48 h, CCK8, control = 100%) is given as 27.2% and the viability at 20 µM (A549; Homo sapiens, A549, 20 µM, 48 h, CCK8, control = 100%) is given as 109%. For the same compound, the viability at 20 µM (PC-9; Homo sapiens, PC-9, PC9, 20 µM, 48 h, CCK8, control = 100%) was 91.7%.
